The text below walks through data of patent US7923440B2, “Method of treating or preventing immune mediated disorders and pharmaceutical formulation for use therein” (Pantarhei Bioscience B.V., priority 2002, dated 2011).

Series [1] deals with T1, human sex Hormone Binding Globulin (SHBG) (Homo sapiens, UniProt P04278).
T1 construct: made in house; host or cells: transgenic mouse (serum)
T1 sequence (P04278 30-402): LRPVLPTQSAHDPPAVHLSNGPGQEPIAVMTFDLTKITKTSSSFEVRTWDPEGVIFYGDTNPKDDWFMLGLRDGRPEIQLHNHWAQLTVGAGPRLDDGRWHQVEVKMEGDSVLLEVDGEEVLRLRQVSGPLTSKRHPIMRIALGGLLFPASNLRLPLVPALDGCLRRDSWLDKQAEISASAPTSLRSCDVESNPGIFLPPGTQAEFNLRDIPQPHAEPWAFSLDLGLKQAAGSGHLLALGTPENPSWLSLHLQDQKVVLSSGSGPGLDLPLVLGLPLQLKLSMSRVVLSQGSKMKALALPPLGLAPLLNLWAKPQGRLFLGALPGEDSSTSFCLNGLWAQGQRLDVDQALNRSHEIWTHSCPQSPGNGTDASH
Briefly: Competitive steroid-binding assay for SHBG. To be noted: comparison among tested steroids; order ethinylestradiol, 17β-estradiol, testosterone, 5α-dihydrotestosterone. As for the experimental part:
Human SHBG was treated for 30 min at room temperature with a dextran-coated charcoal (DCC) suspension in phosphate buffered saline (PBS) to remove any steroid ligand. After centrifugation (2,000×g for 10 min) to sediment the DCC, the supernatant containing the human SHBG was diluted in PBS to a concentration of 1 nM based on its steroid binding capacity.
The average amounts of [^3H]labeled ligands bound to SHBG at each concentration of competitor (B) were expressed as a percentage of the average amounts of [^3H]labeled ligands bound to SHBG in the absence of competitor (B0), and were plotted against the concentration of competitor in each assay tube.

The conditions of series [2]: elimination from the blood; cited from earlier work.
For series [3], the system named is AP-1 site in the presence of ERα. The note with it: Paech et al. 1997; cited from earlier work.
In series [4] the test system is castrated mice with experimental autoimmune encephalomyelitis (EAE). To be noted: amount inducing serum levels of late stage pregnancy, Jansson et al. 1998; cited from earlier work.
In series [5] the test system is AP-1 site in the presence of ERβ. The note with it: in the presence of / through ERβ, Paech et al. 1997; cited from earlier work.
For series [6], the system named is male DBA/1 mice with collagen induced arthritis (CIA). As to the kind of experiment: Collagen induced arthritis (CIA) in male DBA/1 mice, oral treatment. It counts as in vivo, mouse. To be noted: 1 mg/kg. As for the experimental part: The ability of estetrol to alleviate the severity of immune mediated disorders and its possible side-effects were evaluated and compared with dexamethasone in mice developing collagen induced arthritis (CIA), which is another experimental system of autoimmune and chronic inflammatory disease, representing human arthritic diseases, particularly rheumatoid arthritis (RA).
Arthritis was induced in male DBA/1 mice using a two-step immunization protocol (Joosten et al., “Dual role of IL-12 in early and late stages of murine collagen type II arthritis”. J Immunol 1997; 159:4094-4102; Joosten et al., “IL-1β blockade prevents cartilage and bone destruction in murine type II collagen-induced arthritis, whereas TNFα blockade only ameliorates joint inflammation”. J Immunol 1999; 163:5049-55). This strain is highly susceptible to CIA induced with bovine type II collagen. On day 0, mice were immunized with bovine type II collagen (100 μg) emulsified in Freund's complete adjuvant (four subcutaneous injections in the back). On day 21, mice were boosted with an i.p. injection of 100 μg collagen type II diluted in PBS.
The effect of oral treatment with estetrol on collagen-induced arthritis was studied in a 6-week study design. From day 22 until the end of the study (day 42), the animals were treated once daily with vehicle (hydroxypropyl-beta-cyclodextrin in a 20% wt/vol solution in water) serving as negative control or four different dosages of estetrol (3 mg/kg, 1 mg/kg, 0.3 mg/kg and 0.1 mg/kg). Dexamethasone (1 mg/kg), was chosen as a positive control because it is a well studied corticosteroid that reduces swelling and inflammation and is used in a variety of disorders such as skin diseases (psoriasis, hives), allergic conditions, breathing problems, cancer, blood disorders (anemia), digestive problems, eye disorders and for the treatment of arthritis. Although effective as an anti-inflammatory agent, dexamethasone is also known to induce a number of side effects, which amongst others include in humans the induction of osteoporosis, reduced adrenal function, dizziness, nausea, indigestion, increased appetite, weight gain due to enhanced water retention, weakness and/or sleep disturbances. In addition, systemic dexamethasone treatment in rodents results in strong catabolic effects that can be easily observed as weight loss (Orzechowski et al. 2002, “Rats with a glucocorticoid-induced catabolic state show symptoms of oxidative stress and spleen atrophy: the effects of age and recovery”. J Vet Med A Physiol Pathol Clin Med; 49:256-63).
All groups used in the study consisted of 13 mice. During the study animals were weighed and monitored for clinical signs of arthritis. Scoring of disease severity (clinical arthritis score) was performed according to scoring system described by Joosten et al. 1997 (J. Immunol., 159:4094-4102) and Joosten et al. 1999 (J. Immunol., 163:5049-55).
Basic statistical analyses were performed as follows: The significance of differences between all treatment groups in the main clinical outcome parameters was tested using analysis of variance (ANOVA). Each significant ANOVA was followed by post hoc Tukey tests to determine the significance of the difference between each treatment group and the control group. Furthermore, linear regression analysis was used to study the dose-dependency of the effects of treatment with estetrol. All statistical analysis were performed using statistical software program SPSS 10.0 for Windows (SPSS Inc., Chicago, Ill., USA).

In the case of `C[C@]12CCC(=O)C[C@@H]1CC[C@@H]1[C@@H]2CC[C@]2(C)[C@@H](O)CC[C@@H]12` [5α-dihydrotestosterone, reference compound], the “relative binding affinity for human SHBG” value in series [1] is on record as “in this order, show an increased relative binding affinity for human SHBG”.
For `C[C@]12CC[C@@H]3c4ccc(O)cc4CC[C@H]3[C@@H]1CC[C@@H]2O` [E2, 17β-estradiol], in series [2], the half-life result was “around 1 hour”. Besides, the results for the “effect on AP-1 site” value in series [3] and in series [5] were “activates” and “inhibits”, respectively. Besides, in series [4], the “onset of experimental autoimmune encephalomyelitis (EAE)” value is listed as “delays the onset”.
Take `C[C@]12CC[C@@H]3c4ccc(O)cc4C[C@@H](CCCCCCCCC[S+]([O-])CCCC(F)(F)C(F)(F)F)[C@H]3[C@@H]1CC[C@@H]2O` (stereo partly shown) [ICI-182,780]: the “effect on AP-1 site” value is recorded as “inhibit” in series [3] and “stimulate” in series [5].
Consider `C[C@@H]1C[C@H]2[C@@H]3CCC4=CC(=O)C=C[C@]4(C)[C@@]3(F)[C@@H](O)C[C@]2(C)[C@@]1(O)C(=O)CO` [dexamethasone, reference compound], for which the “average cumulative arthritis score” value in series [6] (day 21 to 42, vehicle 31.4±1.73) was determined as 0. Moreover, the “body weight, % of initial weight (day 21)” value is 91.5% in series [6] (day 28), 91.4% in series [6] (day 35) and 94.0% in series [6] (day 42). In series [6] (until day 42, vehicle 5.90±0.38 on day 42), this molecule returned a macroscopic arthritis score of 0. Further, the “disease incidence (arthritis)” value in series [6] (up to day 42) was 0%.
Take `C[C@]12CC[C@@H]3c4ccc(O)cc4CC[C@H]3[C@@H]1C[C@@H](O)[C@@H]2O` [estriol]: the “onset of experimental autoimmune encephalomyelitis (EAE)” value in series [4] was “delays the onset”.
As for `O=C(c1ccc(OCCN2CCCCC2)cc1)c1c(-c2ccc(O)cc2)sc2cc(O)ccc12` [raloxifene], the “effect on AP-1 site” value in series [3] is given as “inhibit”; in series [5] it was “stimulate”.
For the molecule `CC/C(=C(\c1ccccc1)c1ccc(OCCN(C)C)cc1)c1ccccc1` [tamoxifen], the “effect on AP-1 site” value in series [3] is “inhibit”; in series [5], “stimulate”.
For `C[C@]12CC[C@H]3[C@@H](CCC4=CC(=O)CC[C@@]43C)[C@@H]1CC[C@@H]2O` [testosterone, reference compound], in series [1], the “relative binding affinity for human SHBG” value is “in this order, show an increased relative binding affinity for human SHBG”.
